Assay results taken from patent US12180158B1, “Crystalline fumarate salts of n-ethyl-2-(5-fluoro-1H-indol-3-yl)-n-methylethan-1-amine” (Gilgamesh Pharmaceuticals, Inc., priority 2023, dated 2024).

Key:
[1] = Dynamic Vapor Sorption (DVS) isotherm; type: physicochemical; details: 25° C., FIG. 19
Description: Dynamic Vapor Sorption (DVS) was performed using a Q5000SA. The sample (5-15 mg) was loaded into a metallic quartz sample pan, suspended from a microbalance, and exposed to a humidified stream of nitrogen gas. Weight changes were relative to a matching empty reference pan opposite the sample, suspended from the microbalance. The sample was held for a minimum of 10 min at each level and only progressed to the next humidity level if there was <0.002% change in weight between measurements (interval: 5 s) or 45 min had elapsed (for 5-65% RH) or 2 h had elapsed (for 80 and 95% RH). The following programs were used: • 1—Equilibration at 50% RH • 2—50% to 5%. (50%, 35%, 20%, and 5%) • 3—5% to 95% (5%, 20%, 35%, 50%, 65%, 80%, and 95%) • 4—95% to 5% (95%, 80%, 65%, 50%, 35%, 20%, and 5%) • 5—5% to 50% (5%, 20%, 35%, and 50%) • 1—Equilibration at 50% RH • 2—50% to 2%. (50%, 40%, 30%, 20%, 10%, and 2%) • 3—2% to 75% (2%, 10%, 20%, 30%, 40%, 50%, 60%, 70% and 75%) • 4—75% to 2% (75%, 70%, 60%, 50%, 40%, 30%, 20%, 10% and 2%) • 5—2% to 50% (2%, 10%, 20%, 30%, 40% and 50%) • 1—Equilibration at 50% RH • 2—50% to 2%. (50%, 40%, 30%, 20%, 10%, and 2%) • 3—2% to 65% (2%, 10%, 20%, 30%, 40%, 50%, 60% and 65%) • 4—65% to 2% (65%, 60%, 50%, 40%, 30%, 20%, 10% and 2%) • 5—2% to 50% (2%, 10%, 20%, 30%, 40% and 50%). […]

[2] = Exposure of dry cake to humidity, solid form checked by XRPD; type: physicochemical; details: for XRPD pattern, dry cake exposed to humidity: monofumarate solids exposed to humidity (90% RH/30° C.), monofumarate
Description: The two different polymorphic forms of N-ethyl-2-(5-fluoro-1H-indol-3-yl)-N-methylethan-1-amine monofumarate were discovered by reactive crystallization from various solvents. These crystallization experiments were performed by subjecting the in-situ created salt, made by evaporating an ethanol solution of free base and fumaric acid, to vigorous agitation in 10 volumes of the selected solvent. The agitated mixtures were heated to 45-50° C. and cooled to room temperature as necessary to induce crystallization. Form 1 was the predominant form from acetone, and the mixed ethanol/MTBE solvent system, whereas, Form 2 was produced from IPA solvent (see Table 7 below).
The polymorphic Form 1 of N-ethyl-2-(5-fluoro-1H-indol-3-yl)-N-methylethan-1-amine hemifumarate was discovered by reactive crystallization from various solvents. These crystallization experiments were performed by subjecting the in-situ created salt, made by evaporating an ethanol solution of free base and 0.55 equivalents of fumaric acid, to vigorous agitation in 10 volumes of the selected solvent. The agitated mixtures were heated to 45-50° C. and cooled to room temperature as necessary to induce crystallization. Only one form was observed from the brief crystallization screening study, as depicted in Table 10 below.

Compound | XRPD pattern, dry cake exposed to humidity [2] | also measured
CCN(C)CCc1c[nH]c2ccc(F)cc12.Cl [hydrochloride Form 1, N-ethyl-2-(5-fluoro-1H-indol-3-yl)-N-methylethan-1-amine hydrochloride] |  | DVS isotherm behaviour (moisture sorption equilibrium) [1]: did not reach equilibrium at 75% RH
CCN(C)CCc1c[nH]c2ccc(F)cc12.O=C(O)/C=C/C(=O)O [monofumarate Form 1, N-ethyl-2-(5-fluoro-1H-indol-3-yl)-N-methylethan-1-amine monofumarate] | Form 1 | 
CCN(C)CCc1c[nH]c2ccc(F)cc12.O=C(O)/C=C/C(=O)O [monofumarate Form 2, N-ethyl-2-(5-fluoro-1H-indol-3-yl)-N-methylethan-1-amine monofumarate] | slowly converted to Form 1 | 
N-ethyl-2-(5-fluoro-1H-indol-3-yl)-N-methylethan-1-amine hemifumarate [hemifumarate Form 1] |  | XRPD pattern, Humid ([2]; hemi-fumarate dry solid from EtOH:MTBE (1:1 vol.), exposed to humidity): deliquescent
